Source: US8314112B2 (Novartis AG, priority 2008, dated 2012)

T1: human ALK5 (kinase domain, ALK5 T204D) (Homo sapiens, UniProt P36897, T204D)
T1 construct: The kinase domain of human ALK5 (amino acids 200-503); made in house; host or cells: insect cells (baculovirus)
T1 sequence (P36897 200-503 T204D): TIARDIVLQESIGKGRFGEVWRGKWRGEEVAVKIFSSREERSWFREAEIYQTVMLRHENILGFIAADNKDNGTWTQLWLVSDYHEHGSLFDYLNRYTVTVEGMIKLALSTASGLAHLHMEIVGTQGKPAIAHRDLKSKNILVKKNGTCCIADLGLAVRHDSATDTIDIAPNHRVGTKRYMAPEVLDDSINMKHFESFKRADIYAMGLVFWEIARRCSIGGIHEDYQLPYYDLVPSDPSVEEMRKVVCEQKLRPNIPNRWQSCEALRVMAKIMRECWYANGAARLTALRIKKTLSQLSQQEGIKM


Columns and labels:
[1] = target: T1, human ALK5 (kinase domain, ALK5 T204D); test: ALK5 kinase assay ([33P] phosphate incorporation into casein); assay type: biochemical; conditions: casein substrate, 1 μM unlabelled ATP
Outline: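 His-tagged human ALK5 T204D kinase domain (aa 200-503, constitutively active, baculovirus/insect-cell expressed), 50 ng/well, preincubated 10 min with compound and dephosphorylated casein (200 μg/well) in Tris pH 7.4/MgCl2/MnCl2. Reaction started with 1 μM ATP plus [33P]ATP, 50 min at room temperature, EDTA-stopped; casein-bound 33P counted by scintillation after filter capture.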

[2] = system: dimethylnitrosamine induced liver fibrosis; conditions: cited from earlier work
[3] = system: bleomycin-induced pulmonary fibrosis; conditions: bleomycin-treated rats; cited from earlier work
[4] = given therapeutically to rat, 3 weeks treatment

Row | Molecule | IC50 [1] | further results
1 | Cc1cccc(-c2cc(-c3cncc(-c4ccc(CN(C)CC(=O)O)cc4)c3)c3cc[nH]c3n2)n1 [Example 154, [Methyl-(4-{5-[6-(6-methyl-pyridin-2-yl)-1H-pyrrolo[2,3-b]pyridin-4-yl]-pyridin-3-yl}-benzyl)-amino]-acetic acid acid] | 6.4 nM | 
2 | Cc1cccc(-c2cc(-c3cncc(C#CCN4CCC(F)(F)C4)c3)c3cc[nH]c3n2)n1 [Example 155, 4-{5-[3-(3,3-Difluoro-pyrrolidin-1-yl)-prop-1-ynyl]-pyridin-3-yl}-6-(6-methyl-pyridin-2-yl)-1H-pyrrolo[2,3-b]pyridine] | 48 nM | 
3 | Cc1cccc(-c2cc(-c3cncc(-c4cccc(CC(=O)O)c4)c3)c3cc[nH]c3n2)n1 [Example 156, (3-{5-[6-(6-Methyl-pyridin-2-yl)-1H-pyrrolo[2,3-b]pyridin-4-yl]-pyridin-3-yl}-phenyl)-acetic acid] | 11 nM | 
4 | Cc1cccc(-c2cc(-c3cncc(-c4ccc(CC(=O)O)cc4)c3)c3cc[nH]c3n2)n1 [Example 157, (4-{5-[6-(6-Methyl-pyridin-2-yl)-1H-pyrrolo[2,3-b]pyridin-4-yl]-pyridin-3-yl}-phenyl)-acetic acid] | 8 nM | 
5 | Cc1cccc(-c2cc(-c3cncc(C#CCN4CCOCC4)c3)c3cc[nH]c3n2)n1 [Example 158, 6-(6-Methyl-pyridin-2-yl)-4-[5-(3-morpholin-4-yl-prop-1-ynyl)-pyridin-3-yl]-1H-pyrrolo[2,3-b]pyridine] | 27 nM | 
6 | Cc1cccc(-c2cc(-c3cncc(-c4ccc(CCC(=O)O)cc4)c3)c3cc[nH]c3n2)n1 [Example 159, 3-(4-{5-[6-(6-Methyl-pyridin-2-yl)-1H-pyrrolo[2,3-b]pyridin-4-yl]-pyridin-3-yl}-phenyl)-propionic acid] | 6.5 nM | 
7 | Cc1cccc(-c2cc(-c3cncc(-c4ccc(C(C)(C)N(C)C)cc4)c3)c3cc[nH]c3n2)n1 [Example 160, Dimethyl-[1-methyl-1-(4-{5-[6-(6-methyl-pyridin-2-yl)-1H-pyrrolo[2,3-b]pyridin-4-yl]-pyridin-3-yl}-phenyl)-ethyl]-amine] | 5.9 nM | 
8 | Cc1cccc(-c2cc(-c3cncc(-c4ccc(C(C)(C)N5CCOCC5)cc4)c3)c3cc[nH]c3n2)n1 [Example 161, 4-{5-[4-(1-Methyl-1-morpholin-4-yl-ethyl)-phenyl]-pyridin-3-yl}-6-(6-methyl-pyridin-2-yl)-1H-pyrrolo[2,3-b]pyridine] | 19 nM | 
9 | Cc1cccc(-c2cc(-c3cncc(-c4ccc(C(C)(C)NCCO)cc4)c3)c3cc[nH]c3n2)n1 [Example 162, 2-[1-Methyl-1-(4-{5-[6-(6-methyl-pyridin-2-yl)-1H-pyrrolo[2,3-b]pyridin-4-yl]-pyridin-3-yl}-phenyl)-ethylamino]-ethanol] | 7 nM | 
10 | Cc1cccc(-c2cc(-c3cncc(-c4ccc(C(C)(C)N(C)CCO)cc4)c3)c3cc[nH]c3n2)n1 [Example 163, 2-{Methyl-[1-methyl-1-(4-{5-[6-(6-methyl-pyridin-2-yl)-1H-pyrrolo[2,3-b]pyridin-4-yl]-pyridin-3-yl}-phenyl)-ethyl]-amino}-ethanol] | 6.6 nM | 
11 | Cc1cccc(-c2cc(-c3cncc(-c4ccc(C(C)(C)N)cc4C)c3)c3cc[nH]c3n2)n1 [Example 164, 1-Methyl-1-(3-methyl-4-{5-[6-(6-methyl-pyridin-2-yl)-1H-pyrrolo[2,3-b]pyridin-4-yl]-pyridin-3-yl}-phenyl)-ethylamine] | 6.3 nM | 
12 | c1ccc(-c2cc(-c3cn[nH]c3-c3ccccn3)ccn2)cc1 [GW6604] |  | inhibition of extracellular matrix deposition [2, 4]: 60%; prevention of death rate [2, 4]: 40%; side effects ([2]; rat, in vivo): no obvious side effects
13 | follistatin: "follistatin, an antagonist of activin signalling" (protein, UniProt P19883 30-344, looked up) Follistatin: GNCWLRQAKNGRCQVLYKTELSKEECCSTGRLSTSWTEEDVNDNTLFKWMIFNGGAPNCIPCKETCENVDCGPGKKCRMNKKNKPRCVCAPDCSNITWKGPVCGLDGKTYRNECALLKARCKEQPELEVQYQGRCKKTCRDVFCPGSSTCVVDQTNNAYCVTCNRICPEPASSEQYLCGNDGVTYSSACHLRKATCLLGRSIGLAYEGKCIKAKSCEDIQCTGGKKCLWDFKVGRGRCSLCDELCPDSKSDEPVCASDNATYASECAMKEAACSSGVLLEVKHSGSCNSISEDTEEEEEDEDQDYSFPISSILEW |  | lung fibrosis [3]: attenuated lung fibrosis; number of macrophages and neutrophils in bronchoalveolar lavage [3]: significantly reduced
